Paper doi:10.1101/2022.09.09.507317v1 (biorxiv, 2022)

Key:
Assay in all cases: actin-activated ATPase, PK/LDH-coupled NADH absorbance
[1] = biological target: T1, PfMyoA (Plasmodium falciparum, UniProt Q8IDR3); format: biochemical; settings: 2 mM ATP, bovine cardiac actin, 3 mM MgCl2, 5 mM KCl, pH 7.4, 2% DMSO; n = 5
T1 sequence (Q8IDR3 1-818): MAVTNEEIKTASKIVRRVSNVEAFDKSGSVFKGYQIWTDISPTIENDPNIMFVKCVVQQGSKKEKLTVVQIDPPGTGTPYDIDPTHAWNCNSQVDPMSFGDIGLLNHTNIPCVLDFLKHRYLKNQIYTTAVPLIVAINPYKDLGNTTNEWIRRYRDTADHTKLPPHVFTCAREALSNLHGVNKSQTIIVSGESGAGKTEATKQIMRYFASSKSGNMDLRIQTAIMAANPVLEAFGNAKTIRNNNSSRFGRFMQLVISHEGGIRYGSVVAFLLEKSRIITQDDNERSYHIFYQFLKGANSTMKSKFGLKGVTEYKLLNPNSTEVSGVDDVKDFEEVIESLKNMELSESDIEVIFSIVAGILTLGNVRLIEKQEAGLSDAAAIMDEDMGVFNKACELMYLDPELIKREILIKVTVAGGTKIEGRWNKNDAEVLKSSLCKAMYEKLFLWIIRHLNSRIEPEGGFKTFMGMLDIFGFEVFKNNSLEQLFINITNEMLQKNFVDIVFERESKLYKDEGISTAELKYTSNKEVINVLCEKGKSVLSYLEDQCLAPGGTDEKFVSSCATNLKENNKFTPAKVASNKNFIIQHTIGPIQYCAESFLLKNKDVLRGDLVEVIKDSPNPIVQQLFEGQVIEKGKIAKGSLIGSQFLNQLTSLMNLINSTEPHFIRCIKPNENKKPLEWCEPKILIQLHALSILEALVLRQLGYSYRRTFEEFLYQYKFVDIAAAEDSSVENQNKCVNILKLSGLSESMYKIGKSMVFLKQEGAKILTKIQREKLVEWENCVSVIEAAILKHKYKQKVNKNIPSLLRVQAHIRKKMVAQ
T1 sequence (Q8IJM4 1-134 partner): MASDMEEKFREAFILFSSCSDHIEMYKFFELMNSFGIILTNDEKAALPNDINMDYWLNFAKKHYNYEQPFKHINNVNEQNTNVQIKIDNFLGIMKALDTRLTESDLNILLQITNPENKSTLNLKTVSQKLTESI
T1 sequence (Q8I4W8 1-204 partner): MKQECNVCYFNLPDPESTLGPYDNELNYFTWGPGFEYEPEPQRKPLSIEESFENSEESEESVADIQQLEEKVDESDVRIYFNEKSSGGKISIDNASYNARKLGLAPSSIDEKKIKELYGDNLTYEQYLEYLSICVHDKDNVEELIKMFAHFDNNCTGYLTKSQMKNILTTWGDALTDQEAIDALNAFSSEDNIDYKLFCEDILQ

[2] = biological target: bovine cardiac myosin (Bos taurus, UniProt Q9BE39); format: biochemical; settings: 2 mM ATP, 3 mM MgCl2, 5 mM KCl, pH 7.4, 2% DMSO, 200 nM myosin, n = 3
[3] = biological target: rabbit skeletal myosin; format: biochemical, Oryctolagus cuniculus; settings: 2 mM ATP, 3 mM MgCl2, 5 mM KCl, pH 7.4, 2% DMSO, 100 nM myosin, n = 6
[4] = biological target: chicken smooth muscle myosin (Gallus gallus, UniProt P10587); format: biochemical; settings: 2 mM ATP, 3 mM MgCl2, 5 mM KCl, pH 7.4, 2% DMSO, 300 nM myosin, n = 2
chicken smooth muscle myosin, sequence (P10587 2-1979): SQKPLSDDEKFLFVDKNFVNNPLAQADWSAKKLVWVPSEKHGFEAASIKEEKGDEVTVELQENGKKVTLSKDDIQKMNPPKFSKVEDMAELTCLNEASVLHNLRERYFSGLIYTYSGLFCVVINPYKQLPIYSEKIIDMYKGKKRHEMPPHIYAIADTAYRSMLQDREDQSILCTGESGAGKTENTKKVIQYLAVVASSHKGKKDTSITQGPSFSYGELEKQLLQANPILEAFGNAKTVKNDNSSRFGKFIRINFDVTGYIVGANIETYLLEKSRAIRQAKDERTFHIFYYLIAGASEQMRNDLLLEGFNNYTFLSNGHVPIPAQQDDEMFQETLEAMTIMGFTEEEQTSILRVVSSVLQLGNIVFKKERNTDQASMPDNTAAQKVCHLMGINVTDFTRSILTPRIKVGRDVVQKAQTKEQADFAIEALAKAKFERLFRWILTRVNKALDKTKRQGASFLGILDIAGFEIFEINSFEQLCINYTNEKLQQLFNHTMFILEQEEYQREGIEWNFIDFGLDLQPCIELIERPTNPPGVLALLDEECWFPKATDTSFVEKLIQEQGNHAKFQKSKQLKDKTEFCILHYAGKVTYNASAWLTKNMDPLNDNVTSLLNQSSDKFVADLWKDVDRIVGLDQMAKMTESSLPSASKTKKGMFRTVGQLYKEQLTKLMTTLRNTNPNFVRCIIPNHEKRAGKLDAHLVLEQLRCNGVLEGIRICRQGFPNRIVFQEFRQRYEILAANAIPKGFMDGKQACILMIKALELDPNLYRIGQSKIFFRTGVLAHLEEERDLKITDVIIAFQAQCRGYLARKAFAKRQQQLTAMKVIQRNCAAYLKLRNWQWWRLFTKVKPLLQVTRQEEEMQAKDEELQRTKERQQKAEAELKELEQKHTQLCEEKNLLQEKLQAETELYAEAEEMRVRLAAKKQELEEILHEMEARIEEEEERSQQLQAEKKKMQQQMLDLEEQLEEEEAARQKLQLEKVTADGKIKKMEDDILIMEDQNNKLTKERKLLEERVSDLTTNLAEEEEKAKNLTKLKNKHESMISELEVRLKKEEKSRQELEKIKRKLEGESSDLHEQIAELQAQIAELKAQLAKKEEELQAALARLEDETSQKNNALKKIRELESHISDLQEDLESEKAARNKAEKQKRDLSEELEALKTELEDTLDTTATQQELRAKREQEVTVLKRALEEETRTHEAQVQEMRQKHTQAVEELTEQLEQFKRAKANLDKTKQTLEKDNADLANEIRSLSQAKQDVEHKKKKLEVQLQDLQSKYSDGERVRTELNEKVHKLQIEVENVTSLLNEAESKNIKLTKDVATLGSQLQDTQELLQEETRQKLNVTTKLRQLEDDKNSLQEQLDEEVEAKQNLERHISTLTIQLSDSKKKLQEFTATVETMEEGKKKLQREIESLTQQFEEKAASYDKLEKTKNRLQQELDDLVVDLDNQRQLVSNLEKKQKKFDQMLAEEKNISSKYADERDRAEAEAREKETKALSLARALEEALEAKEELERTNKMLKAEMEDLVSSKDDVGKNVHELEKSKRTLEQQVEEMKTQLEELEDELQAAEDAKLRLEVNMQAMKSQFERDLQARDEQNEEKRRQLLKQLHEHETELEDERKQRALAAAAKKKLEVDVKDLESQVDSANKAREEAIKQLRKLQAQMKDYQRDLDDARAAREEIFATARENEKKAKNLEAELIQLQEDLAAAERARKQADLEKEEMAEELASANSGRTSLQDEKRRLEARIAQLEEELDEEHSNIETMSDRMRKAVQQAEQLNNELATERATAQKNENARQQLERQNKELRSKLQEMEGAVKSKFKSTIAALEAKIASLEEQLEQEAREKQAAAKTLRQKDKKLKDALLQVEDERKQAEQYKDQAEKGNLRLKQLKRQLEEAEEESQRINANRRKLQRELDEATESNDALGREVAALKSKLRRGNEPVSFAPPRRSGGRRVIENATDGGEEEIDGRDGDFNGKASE
chicken smooth muscle myosin, sequence (P02607 2-151 partner): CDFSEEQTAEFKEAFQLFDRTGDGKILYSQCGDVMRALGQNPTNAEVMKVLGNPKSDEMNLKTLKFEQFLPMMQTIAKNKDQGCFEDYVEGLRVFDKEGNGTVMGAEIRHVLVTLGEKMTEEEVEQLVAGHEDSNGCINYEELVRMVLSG
chicken smooth muscle myosin, sequence (P02612 2-172 partner): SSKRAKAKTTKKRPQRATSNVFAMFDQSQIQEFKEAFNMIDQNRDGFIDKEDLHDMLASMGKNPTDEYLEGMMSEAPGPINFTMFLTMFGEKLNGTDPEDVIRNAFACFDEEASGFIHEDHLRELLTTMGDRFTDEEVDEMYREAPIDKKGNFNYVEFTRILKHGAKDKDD

bovine cardiac myosin, sequence (Q9BE39 whole entry): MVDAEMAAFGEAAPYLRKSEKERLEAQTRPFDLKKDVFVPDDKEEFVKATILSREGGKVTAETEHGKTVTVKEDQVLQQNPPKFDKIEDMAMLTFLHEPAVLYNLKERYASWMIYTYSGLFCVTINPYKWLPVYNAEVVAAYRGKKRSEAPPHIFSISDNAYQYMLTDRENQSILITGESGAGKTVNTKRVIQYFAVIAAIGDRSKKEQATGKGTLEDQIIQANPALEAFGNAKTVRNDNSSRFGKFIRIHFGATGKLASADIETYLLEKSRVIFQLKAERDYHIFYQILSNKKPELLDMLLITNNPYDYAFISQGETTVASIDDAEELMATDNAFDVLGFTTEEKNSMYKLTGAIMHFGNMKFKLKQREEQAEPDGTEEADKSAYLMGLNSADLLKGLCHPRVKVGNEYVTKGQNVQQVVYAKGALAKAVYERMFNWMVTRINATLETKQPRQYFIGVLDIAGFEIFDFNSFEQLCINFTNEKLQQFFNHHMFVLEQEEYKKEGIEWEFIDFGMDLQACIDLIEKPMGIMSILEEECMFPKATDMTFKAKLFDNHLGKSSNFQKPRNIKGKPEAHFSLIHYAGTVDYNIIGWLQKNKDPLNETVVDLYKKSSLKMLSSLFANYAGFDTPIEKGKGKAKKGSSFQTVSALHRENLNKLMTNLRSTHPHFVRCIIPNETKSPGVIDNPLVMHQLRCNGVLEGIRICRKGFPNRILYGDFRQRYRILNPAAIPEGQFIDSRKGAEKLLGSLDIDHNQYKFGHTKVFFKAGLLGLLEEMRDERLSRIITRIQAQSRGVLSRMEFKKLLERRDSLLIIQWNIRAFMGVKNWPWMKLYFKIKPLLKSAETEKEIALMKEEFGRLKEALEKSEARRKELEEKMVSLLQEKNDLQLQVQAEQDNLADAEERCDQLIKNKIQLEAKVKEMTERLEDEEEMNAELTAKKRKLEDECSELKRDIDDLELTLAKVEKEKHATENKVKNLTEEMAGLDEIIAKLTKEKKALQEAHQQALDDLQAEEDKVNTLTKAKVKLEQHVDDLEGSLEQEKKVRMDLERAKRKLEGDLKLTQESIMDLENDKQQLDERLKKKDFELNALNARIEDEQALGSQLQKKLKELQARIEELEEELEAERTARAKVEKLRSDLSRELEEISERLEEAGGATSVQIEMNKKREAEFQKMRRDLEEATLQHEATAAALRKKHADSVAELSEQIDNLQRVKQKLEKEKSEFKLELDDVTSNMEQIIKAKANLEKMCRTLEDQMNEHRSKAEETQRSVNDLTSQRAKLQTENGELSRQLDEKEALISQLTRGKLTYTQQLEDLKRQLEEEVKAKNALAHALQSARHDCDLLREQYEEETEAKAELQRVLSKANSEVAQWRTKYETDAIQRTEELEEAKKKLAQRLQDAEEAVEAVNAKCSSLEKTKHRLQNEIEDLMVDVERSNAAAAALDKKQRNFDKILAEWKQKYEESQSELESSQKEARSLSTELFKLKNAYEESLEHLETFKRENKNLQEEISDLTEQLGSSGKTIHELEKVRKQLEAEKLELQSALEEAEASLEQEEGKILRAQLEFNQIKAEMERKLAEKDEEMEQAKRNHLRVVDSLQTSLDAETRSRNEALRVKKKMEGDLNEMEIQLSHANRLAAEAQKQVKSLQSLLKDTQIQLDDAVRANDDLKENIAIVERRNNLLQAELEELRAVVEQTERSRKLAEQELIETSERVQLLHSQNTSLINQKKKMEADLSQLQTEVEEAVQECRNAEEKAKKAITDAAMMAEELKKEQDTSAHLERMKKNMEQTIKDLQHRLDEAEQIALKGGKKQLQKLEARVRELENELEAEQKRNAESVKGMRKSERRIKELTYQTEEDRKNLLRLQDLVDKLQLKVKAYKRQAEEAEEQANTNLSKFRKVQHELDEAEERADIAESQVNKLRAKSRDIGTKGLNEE
bovine cardiac myosin, sequence (P85100 2-199 partner): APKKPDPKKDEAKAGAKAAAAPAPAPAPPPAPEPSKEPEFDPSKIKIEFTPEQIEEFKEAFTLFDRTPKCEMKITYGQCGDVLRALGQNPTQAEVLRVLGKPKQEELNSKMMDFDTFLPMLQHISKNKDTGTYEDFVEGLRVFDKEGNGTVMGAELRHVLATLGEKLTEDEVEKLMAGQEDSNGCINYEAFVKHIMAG
bovine cardiac myosin, sequence (Q3SZE5 2-166 partner): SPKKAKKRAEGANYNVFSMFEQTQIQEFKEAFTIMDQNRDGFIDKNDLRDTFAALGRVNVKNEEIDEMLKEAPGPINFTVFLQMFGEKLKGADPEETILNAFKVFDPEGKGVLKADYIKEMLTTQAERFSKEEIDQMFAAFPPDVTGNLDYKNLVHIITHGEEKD

Row | Molecule | IC50 [1] [nM] | IC50 [2] [nM] | IC50 [3] [nM] | IC50 [4] [nM]
1 | COc1ccc(C2(NCc3c[nH]nc3-c3cccs3)CC2)cc1 [KNX-002] | 400 ± 100 | – | – | –
2 | KNX-115 | – | 10000 ± 6400 | 1000 ± 400 | > 50000
